{"source": "paper PMC12491383", "about": "“Organ and tumour dosimetry of ^177Lu-rhPSMA-10.1, a novel PSMA-targeted therapy: results from a Phase I trial” (European Journal of Nuclear Medicine and Molecular Imaging, 2025)", "assay": "SPECT/CT image-based normal organ dosimetry (MIRD S-value methodology), Phase I BET-PSMA-121", "type": "in vivo, human", "conditions": "for Cumulative image-based absorbed dose, bone marrow, range across patients / Cumulative image-based absorbed dose, salivary glands, range across patients: all cycles; for Cumulative Absorbed Dose, Bone Marrow, % of dose limit: limit 2 Gy; for Cumulative Absorbed Dose, Kidney, % of dose limit: limit 23 Gy; for Cumulative Absorbed Dose, Salivary Glands, % of dose limit: limit 24 Gy", "source_text": "Figure 1 provides a schematic representation of the study. Enrolled patients were sequentially entered into one of the two cohorts. Cohort A received 5.55 GBq (150 mCi) of ^177Lu-rhPSMA-10.1 and Cohort B received 7.40 GBq (200 mCi) of ^177Lu-rhPSMA-10.1. Subsequent doses were delivered at 6-week intervals subject to individual tolerability and safety assessments. Each patient received between one and three cycles, with a maximum of three cycles of treatment being permitted in this initial part of the study. All administrations of ^177Lu-rhPSMA-10.1 were performed using intravenous injection under the supervision of the treating physician.\nMulti-bed single-photon emission computed tomography (SPECT)/CT was conducted at 3-, 24-, 48- and 168-hours post-^177Lu-rhPSMA-10.1 administration in each treatment cycle for the estimation of organ and tumour absorbed doses in each patient. Prior to commencement of the study, each investigating site was required to complete a calibration of their dose calibrator and SPECT/CT system to ensure harmonised quantification of the imaging data. Quantitative reconstructions and all dosimetry analyses were carried out centrally by an independent dosimetry vendor (Radiopharmaceutical Imaging and Dosimetry LLC, Baltimore, MD).\nThe specific absorbed doses (Gy/GBq) in normal organs and tumours were determined using the Medical Internal Radiation Dose (MIRD) Committee S-value methodology. Individual patient organ masses, determined via CT delineation, were scaled to reflect deviations from reference phantom geometry. Cumulative organ absorbed doses (Gy) were calculated across all treatment cycles. Further details on dosimetry methodology are provided in the supplemental materials and have been reported in accordance with EANM guidance.\nAll patients underwent multi-bed single-photon emission computed tomography (SPECT)/CT at 3-, 24-, 48- and 168-hours post-^177Lu-rhPSMA-10.1 administration during each treatment cycle. The acquisition parameters are shown in Supplemental Table S1. All images were centrally reconstructed in 3D-RD-S using the iterative Ordered Subsets Expectation-Maximization (OSEM) algorithm with 40 iterations and 5 subsets. Attenuation, scatter, and the Collimator-Detector Response Function (CDRF) were modelled during the iterative process using a rotation-based projector. CT-based attenuation compensation was performed using the attenuation map generated from the CT image. Scatter was modelled using the Effective Source Scatter Estimation (ESSE) method.\nReconstructed images were converted to activity concentration units (Becquerel (Bq)/millilitre (mL)) using the calibration factor generated for each individual imaging system. Organ masses were individually determined using CT-based delineations and longitudinal SPECT activity statistics were based on these same delineations.\nTime integrated activity coefficients (TIACs) were calculated for each target tissue. This was done by fitting each time–activity curve with an exponential function (mono, bi, or exponential uptake and washout) and integrating from time 0 to infinity. The simpler function was preferred provided the fit was adequate ([…]).\nThe TIAC in the bone marrow was derived from contours drawn around the marrow inside lumbar vertebrae L3–L5. Where lesions were present in the lumbar area, contours were drawn around either the femur heads, scapula or sternum depending on the anatomical coverage. The TIAC was then divided by the marrow mass in this region to give the TIAC concentration. The total bone marrow TIAC was be obtained as the product of this concentration and the standard International Commission on Radiological Protection (ICRP) bone marrow mass.\nThe S-value methodology was used to estimate the target tissue dose. […]", "key": {"[1]": {"conditions": "Cohort A (5.55 GBq/cycle), 3 patients"}, "[2]": {"conditions": "Cohort B (7.40 GBq/cycle), 10 patients"}, "[3]": {"conditions": "Patient 1, Cohort A, 3 cycles, 16.20 GBq cumulative"}, "[4]": {"conditions": "Patient 2, Cohort A, 2 cycles, 11.57 GBq cumulative"}, "[5]": {"conditions": "Patient 3, Cohort A, 3 cycles, 16.58 GBq cumulative"}, "[6]": {"conditions": "Patient 4, Cohort B, 3 cycles, 22.94 GBq cumulative"}}, "note": "“And” between values parts separate entries of the source, which are not always exact repeats. Equal values may be shown once."}
{"compound": "CC(C)(C)[Si](F)(c1ccc(C(=O)NC[C@@H](NC(=O)CN2CCN(CC(=O)[O-])CCN(CC(=O)[O-])CCN(CC(=O)[O-])CC2)C(=O)N[C@H](CCCCNC(=O)CCC(=O)NCCC[C@@H](NC(=O)CC[C@H](NC(=O)N[C@@H](CCC(=O)O)C(=O)O)C(=O)O)C(=O)O)C(=O)O)cc1)C(C)(C)C.[177Lu+3]", "note": "[^177Lu-rhPSMA-10.1]", "values": [{"measurement": "Mean (SD) Absorbed Dose, adrenals", "setting": "All Cycles", "value": "0.010 (0.018) Gy/GBq"}, {"measurement": "Mean (SD) Absorbed Dose, bladder wall", "setting": "All Cycles", "value": "0.018 (0.010) Gy/GBq"}, {"measurement": "Mean (SD) Absorbed Dose, bone marrow (image-based)", "setting": "All Cycles", "value": "0.011 Gy/GBq and 0.011 (0.020) Gy/GBq"}, {"measurement": "Mean (SD) Absorbed Dose, brain", "setting": "All Cycles", "value": "0.003 (0.004) Gy/GBq"}, {"measurement": "Mean (SD) Absorbed Dose, gall bladder wall", "setting": "All Cycles", "value": "0.004 (0.002) Gy/GBq"}, {"measurement": "Mean (SD) Absorbed Dose, heart", "setting": "All Cycles", "value": "0.014 (0.003) Gy/GBq"}, {"measurement": "Mean (SD) Absorbed Dose, intestine", "setting": "All Cycles", "value": "0.002 (0.001) Gy/GBq"}, {"measurement": "Mean (SD) Absorbed Dose, kidneys", "setting": "All Cycles", "value": "0.297 (0.098) Gy/GBq"}, {"measurement": "Mean (SD) Absorbed Dose, lacrimal glands", "setting": "All Cycles", "value": "0.611 (0.329) Gy/GBq"}, {"measurement": "Mean (SD) Absorbed Dose, liver", "setting": "All Cycles", "value": "0.035 (0.018) Gy/GBq"}, {"measurement": "Mean (SD) Absorbed Dose, lungs", "setting": "All Cycles", "value": "0.049 (0.055) Gy/GBq"}, {"measurement": "Mean (SD) Absorbed Dose, pancreas", "setting": "All Cycles", "value": "0.002 (0.001) Gy/GBq"}, {"measurement": "Mean (SD) Absorbed Dose, prostate", "setting": "All Cycles", "value": "0.003 (0.002) Gy/GBq"}, {"measurement": "Mean (SD) Absorbed Dose, salivary glands", "setting": "All Cycles", "value": "0.134 (0.077) Gy/GBq"}, {"measurement": "Mean (SD) Absorbed Dose, spleen", "setting": "All Cycles", "value": "0.034 (0.019) Gy/GBq"}, {"measurement": "Mean (SD) Absorbed Dose, stomach wall", "setting": "All Cycles", "value": "0.004 (0.003) Gy/GBq"}, {"measurement": "Mean (SD) Absorbed Dose, ureters", "setting": "All Cycles", "value": "0.002 (0.001) Gy/GBq"}, {"measurement": "Cumulative image-based absorbed dose, bone marrow, range across patients", "setting": "[1]", "value": "0.14–0.87 Gy"}, {"measurement": "Cumulative image-based absorbed dose, salivary glands, range across patients", "setting": "[1]", "value": "1.25–5.53 Gy"}, {"measurement": "Cumulative image-based absorbed dose, bone marrow, range across patients", "setting": "[2]", "value": "0.03–0.42 Gy"}, {"measurement": "Cumulative image-based absorbed dose, salivary glands, range across patients", "setting": "[2]", "value": "0.79–3.40 Gy"}, {"measurement": "Mean (SD) Absorbed Dose, adrenals", "setting": "Cycle 1, 13 patients", "value": "0.007 (0.002) Gy/GBq"}, {"measurement": "Mean (SD) Absorbed Dose, bladder wall", "setting": "Cycle 1, 13 patients", "value": "0.018 (0.013) Gy/GBq"}, {"measurement": "Mean (SD) Absorbed Dose, bone marrow (image-based)", "setting": "Cycle 1, 13 patients", "value": "0.011 (0.010) Gy/GBq"}, {"measurement": "Mean (SD) Absorbed Dose, brain", "setting": "Cycle 1, 13 patients", "value": "0.002 (0.001) Gy/GBq"}, {"measurement": "Mean (SD) Absorbed Dose, gall bladder wall", "setting": "Cycle 1, 13 patients", "value": "0.004 (0.002) Gy/GBq"}, {"measurement": "Mean (SD) Absorbed Dose, heart", "setting": "Cycle 1, 13 patients", "value": "0.013 (0.004) Gy/GBq"}, {"measurement": "Mean (SD) Absorbed Dose, intestine", "setting": "Cycle 1, 13 patients", "value": "0.002 (0.001) Gy/GBq"}, {"measurement": "Mean (SD) Absorbed Dose, kidneys", "setting": "Cycle 1, 13 patients", "value": "0.266 Gy/GBq and 0.27 Gy/GBq and 0.266 (0.075) Gy/GBq"}, {"measurement": "Mean (SD) Absorbed Dose, lacrimal glands", "setting": "Cycle 1, 13 patients", "value": "0.568 (0.348) Gy/GBq"}, {"measurement": "Mean (SD) Absorbed Dose, liver", "setting": "Cycle 1, 13 patients", "value": "0.034 (0.021) Gy/GBq"}, {"measurement": "Mean (SD) Absorbed Dose, lungs", "setting": "Cycle 1, 13 patients", "value": "0.058 (0.072) Gy/GBq"}, {"measurement": "Mean (SD) Absorbed Dose, pancreas", "setting": "Cycle 1, 13 patients", "value": "0.002 (0.001) Gy/GBq"}, {"measurement": "Mean (SD) Absorbed Dose, prostate", "setting": "Cycle 1, 13 patients", "value": "0.003 (0.002) Gy/GBq"}, {"measurement": "Mean (SD) Absorbed Dose, salivary glands", "setting": "Cycle 1, 13 patients", "value": "0.130 Gy/GBq and 0.13 Gy/GBq and 0.130 (0.068) Gy/GBq"}, {"measurement": "Mean (SD) Absorbed Dose, spleen", "setting": "Cycle 1, 13 patients", "value": "0.034 (0.023) Gy/GBq"}, {"measurement": "Mean (SD) Absorbed Dose, stomach wall", "setting": "Cycle 1, 13 patients", "value": "0.005 (0.005) Gy/GBq"}, {"measurement": "Mean (SD) Absorbed Dose, ureters", "setting": "Cycle 1, 13 patients", "value": "0.002 (0.001) Gy/GBq"}, {"measurement": "Cumulative Absorbed Dose, Bone Marrow", "setting": "[3]", "value": 0.14, "unit": "Gy"}, {"measurement": "Cumulative Absorbed Dose, Kidney", "setting": "[3]", "value": 8.20, "unit": "Gy"}, {"measurement": "Cumulative Absorbed Dose, Salivary Glands", "setting": "[3]", "value": 5.53, "unit": "Gy"}, {"measurement": "Cumulative Absorbed Dose, Bone Marrow, % of dose limit", "setting": "[3]", "value": 7.0, "unit": "%"}, {"measurement": "Cumulative Absorbed Dose, Kidney, % of dose limit", "setting": "[3]", "value": 36, "unit": "%"}, {"measurement": "Cumulative Absorbed Dose, Salivary Glands, % of dose limit", "setting": "[3]", "value": 23, "unit": "%"}, {"measurement": "Cumulative Absorbed Dose, Bone Marrow", "setting": "[4]", "value": 0.14, "unit": "Gy"}, {"measurement": "Cumulative Absorbed Dose, Kidney", "setting": "[4]", "value": 5.86, "unit": "Gy"}, {"measurement": "Cumulative Absorbed Dose, Salivary Glands", "setting": "[4]", "value": 1.25, "unit": "Gy"}, {"measurement": "Cumulative Absorbed Dose, Bone Marrow, % of dose limit", "setting": "[4]", "value": 7.0, "unit": "%"}, {"measurement": "Cumulative Absorbed Dose, Kidney, % of dose limit", "setting": "[4]", "value": 25, "unit": "%"}, {"measurement": "Cumulative Absorbed Dose, Salivary Glands, % of dose limit", "setting": "[4]", "value": 5.2, "unit": "%"}, {"measurement": "Cumulative Absorbed Dose, Bone Marrow", "setting": "[5]", "value": 0.87, "unit": "Gy"}, {"measurement": "Cumulative Absorbed Dose, Kidney", "setting": "[5]", "value": 6.15, "unit": "Gy"}, {"measurement": "Cumulative Absorbed Dose, Salivary Glands", "setting": "[5]", "value": 2.96, "unit": "Gy"}, {"measurement": "Cumulative Absorbed Dose, Bone Marrow, % of dose limit", "setting": "[5]", "value": 44, "unit": "%"}, {"measurement": "Cumulative Absorbed Dose, Kidney, % of dose limit", "setting": "[5]", "value": 27, "unit": "%"}, {"measurement": "Cumulative Absorbed Dose, Salivary Glands, % of dose limit", "setting": "[5]", "value": 12, "unit": "%"}, {"measurement": "Cumulative Absorbed Dose, Bone Marrow", "setting": "[6]", "value": 0.13, "unit": "Gy"}, {"measurement": "Cumulative Absorbed Dose, Kidney", "setting": "[6]", "value": 8.33, "unit": "Gy"}, {"measurement": "Cumulative Absorbed Dose, Salivary Glands", "setting": "[6]", "value": 2.87, "unit": "Gy"}]}
